Measurements taken from US11311568B2, “Therapeutic pharmaceutical composition for cancer including miRNA” (Purmx Therapeutics, Inc., priority 2017, dated 2022).

Key:
[1] = tested on: breast cancer stem cell strain (MDA-MB231-luc-D3H2LN cells); experiment: Annexin V apoptosis marker expression by FACS; assay type: cell-based; settings: six days after transfection, FIG. 10 bottom
Protocol: Moreover, by the protocol below, the expression of apoptosis marker Annexin V in breast cancer cells transfected with miR-3140-3p was analyzed.
1: Transfection of miR-3140-3p was performed with a protocol similar to that described above.
2: Six days after transfection, cells were recovered together with the supernatant.
3: Samples for FACS were prepared according to the protocol of the Annexin V assay kit.
4: Cells stained by Annexin V-FITC were stained with an antibody against cancer stem cell marker CD44 (eBioScience).
5: The prepared samples were analyzed with Cell Sorter (SONY).

[2] = tested on: malignant pleural mesothelioma cell EHMES-10; experiment: Calculation of IC50 value, cell survival with Cell Counting Kit 8; assay type: cell-based; settings: five days after transfection
Protocol: The IC50 value of miR-3140-3p was calculated with malignant pleural mesothelioma cell EHMES-10.
The protocol therefor is shown below.
1: To 25 μL of serum free medium (SFM) was added 0.25 μL of RNAiMAX (Invitrogen).
2: miR-Control and miR-3140-3p were serially diluted so that the final concentrations will be 40 nM, 20 nM, 10 nM, 5 nM, 1 nM, 500 pM, 100 pM, 50 pM, 10 pM, 5 pM, and 1 pM, and mixed with SFM/RNAiMAX complex.
3: This was incubated at room temperature for 20 minutes.
4: 75 μL of each of cells at 6.7×10^4 cells/mL were added to each well.
5: This was incubated at 37° C. under 5% CO2 condition.
6: Five days after transfection, the survival rates of cells were investigated with Cell Counting Kit 8 (DOJINDO). The protocol therefor is shown below.
(i) Cell Counting Kit was diluted 10-folds with a medium.
(ii) 200 μL of each of the diluted Cell Counting Kit was added to each well.
(iii) This was incubated at 37° C. under 5% CO2 condition for 1 hour.
(iv) The values at 450 nm/600 nm were measured with a plate reader.
Note that the same control RNA as that used in Experiment 7 was employed as the control.

[3] = tested on: malignant pleural mesothelioma cell strain EHMES-10; experiment: Comparison of antitumor effect with cisplatin in vivo, pleural cavity transplantation; set-up: species or system mice (C-B-17/Icr-scid/scid Jcl); settings: miRNA/A6K in pleural cavity versus cisplatin 6 mg/kg intraperitoneal, EHMES-10 in pleural cavity, FIGS. 30-33
Text: In order to investigate the relative superiority of antitumor effect of miR-3140-3p, the tumor suppression effect of cisplatin which is the first-line drug of malignant pleural mesothelioma and the tumor suppression effect of miR-3140-3p were compared in vivo.
Six weeks-old male mice (C-B-17/Icr-scid/scid Jcl) were used as mice. Malignant pleural mesothelioma cell strain EHMES-10 which expresses the luciferase gene was used as the tumor cell.
The protocol is shown below.
1: Mice were intraperitoneally administered 0.1 mL per 10 g of body weight of a mixed anesthetic drug of medetomidine hydrochloride, midazolam, and butorphanol tartrate.
2: After anesthesia, mouse chest hair was shaved, and an incision was made in the epidermis with scissors.
3: In the mouse pleural cavity 100 μL of tumor cells (3×10^7 cells/mL) was transplanted with a 27 G syringe for insulin.
4: Four days after transplantation, imaging of tumor cells was performed with IVIS Spectrum CT In vivo Imaging System.
5: After imaging, grouping was performed with successfully transplanted mice.
6: Mice were intraperitoneally administered 0.1 mL per 10 g of body weight of a mixed anesthetic drug of medetomidine hydrochloride, midazolam, and butorphanol tartrate to anesthetize the mice. […]

Which results are given for “miR-3140-3p: Mature-miRNA, AGCUUUUGGGAAUUCAGGUAGU (SEQ ID NO. 2) (listed as RNA, chemistry not given here; listed as Homo sapiens)”?
apoptosis marker Annexin V positive [1]: 96.97%; growth inhibition effect (survival rates of cells, Cell Counting Kit 8) ([2]; EHMES-10, 1 pM to 40 nM, FIG. 29): growth inhibition effect against malignant pleural mesothelioma cell strain EHMES-10 even at a very low concentration; IC50 ([2]; EHMES-10, final concentration, Cell Counting Kit 8): 0.57 nM; antitumor effect (tumor suppression, survival rates) compared with cisplatin [3]: equivalent or higher compared to cisplatin
